Source: US20250368625A1, “PIPERAZINES” (Grünenthal GmbH, priority 2024, published 2025)

Target: T1, human SSTR4 (Homo sapiens, UniProt P31391)
T1 construct: expressed in transfected cells; host or cells: CHO-K1
Assay: hSSTR4 cAMP assay (cAMP accumulation, LANCE Ultra cAMP kit, CHO-K1 human SSTR4 Gi cell line)
Format: cell-based
Settings: functional agonism, forskolin 10 μM stimulated CHO-K1 human SSTR4 Gi cells, 30 min at 25° C., at least duplicate, averaged; read-out: hSSTR4 EC50
In short: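 CHO-K1 cells expressing human SSTR4 (Gi), pre-cultured 18-20 h or thawed and used directly, stimulated with 10 μM forskolin plus test agonist in concentration series, 30 min at 25° C. Lysate cAMP read by TR-FRET (Eu-cAMP tracer/ULight-anti-cAMP, 1 h, 25° C). Normalized to forskolin-only and forskolin+100 nM SST14 controls, 4-parameter fit; ≥duplicate, averaged.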

T1 sequence (P31391 whole entry): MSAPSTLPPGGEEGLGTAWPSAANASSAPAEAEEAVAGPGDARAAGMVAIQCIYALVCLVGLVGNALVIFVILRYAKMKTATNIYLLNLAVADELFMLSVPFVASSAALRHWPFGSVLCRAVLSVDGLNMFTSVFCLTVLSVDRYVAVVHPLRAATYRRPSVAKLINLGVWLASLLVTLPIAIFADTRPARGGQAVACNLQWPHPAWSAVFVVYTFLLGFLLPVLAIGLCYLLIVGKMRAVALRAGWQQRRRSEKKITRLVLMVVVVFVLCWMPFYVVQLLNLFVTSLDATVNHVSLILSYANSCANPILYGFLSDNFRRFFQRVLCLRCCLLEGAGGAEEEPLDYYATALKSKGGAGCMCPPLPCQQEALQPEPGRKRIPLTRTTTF

## CC(C)(NC(=O)[C@@H]1CNCCN1CC1CC(F)(F)C1)c1ncc2c(C(F)(F)F)cccn12 [SC-113, (S)-1-((3,3-difluorocyclobutyl)methyl)-N-(2-(8-(trifluoromethyl)imidazo[1,5-a]pyridin-3-yl)propan-2-yl)piperazine-2-carboxamide]
  EC50: 26 nM

## Cc1cccn2c(C(C)(C)NC(=O)[C@@H]3CNCCN3C)nc(C)c12 [SC-114, (S)-N-(2-(1,8-dimethylimidazo[1,5-a]pyridin-3-yl)propan-2-yl)-1-methylpiperazine-2-carboxamide]
  EC50: 0.38 nM

## Cc1cccn2c(C(C)(C)NC(=O)[C@@H]3CNCCN3CC3CC(F)(F)C3)nc(C)c12 [SC-115, (S)-1-((3,3-difluorocyclobutyl)methyl)-N-(2-(1,8-dimethylimidazo[1,5-a]pyridin-3-yl)propan-2-yl)piperazine-2-carboxamide]
  EC50: 0.34 nM

## Cc1cccn2c(C(C)(C)NC(=O)[C@@H]3CN(C)CCN3)nc(C)c12 [SC-116, (S)-N-(2-(1,8-dimethylimidazo[1,5-a]pyridin-3-yl)propan-2-yl)-4-methylpiperazine-2-carboxamide]
  EC50: 32 nM

## Cc1cccn2c(C(C)(C)NC(=O)[C@@H]3CNCCN3Cc3cnn(C)c3)nc(C)c12 [SC-117, (S)-N-(2-(1,8-dimethylimidazo[1,5-a]pyridin-3-yl)propan-2-yl)-1-((1-methyl-1H-pyrazol-4-yl)methyl)piperazine-2-carboxamide]
  EC50: 1.6 nM

## CN1CCNC[C@H]1C(=O)NC(C)(C)c1ncc2c(C3CC3)cccn12 [SC-118, (S)-N-(2-(8-cyclopropylimidazo[1,5-a]pyridin-3-yl)propan-2-yl)-1-methylpiperazine-2-carboxamide]
  EC50: 15 nM

## CN1CCN[C@H](C(=O)NC(C)(C)c2ncc3c(C4CC4)cccn23)C1 [SC-119, (S)-N-(2-(8-cyclopropylimidazo[1,5-a]pyridin-3-yl)propan-2-yl)-4-methylpiperazine-2-carboxamide]
  EC50: 540 nM

## Cn1cc(CN2CCNC[C@H]2C(=O)NC(C)(C)c2ncc3c(C4CC4)cccn23)cn1 [SC-120, (S)-N-(2-(8-cyclopropylimidazo[1,5-a]pyridin-3-yl)propan-2-yl)-1-((1-methyl-1H-pyrazol-4-yl)methyl)piperazine-2-carboxamide]
  EC50: 53 nM

## CC(C)(NC(=O)[C@@H]1CNCCN1CC1CC(F)(F)C1)c1ncc2c(C3CC3)cccn12 [SC-121, (S)-N-(2-(8-cyclopropylimidazo[1,5-a]pyridin-3-yl)propan-2-yl)-1-((3,3-difluorocyclobutyl)methyl)piperazine-2-carboxamide]
  EC50: 16 nM

## Cc1cccc2c(C(C)(C)NC(=O)[C@@H]3CNCCN3CC3COC3)n[nH]c12 [SC-122, (S)—N-(2-(7-methyl-1H-indazol-3-yl)propan-2-yl)-1-(oxetan-3-ylmethyl)piperazine-2-carboxamide]
  EC50: 1.2 nM

## Cn1nc(C(C)(C)NC(=O)[C@@H]2CNCCN2CC2COC2)c2ccccc21 [SC-123, (S)—N-(2-(1-methyl-1H-indazol-3-yl)propan-2-yl)-1-(oxetan-3-ylmethyl)piperazine-2-carboxamide]
  EC50: 7.1 nM

## Cc1cccc2c(C(C)(C)NC(=O)[C@@H]3CNCCN3C)noc12 [SC-124, (S)-1-methyl-N-(2-(7-methylbenzo[d]isoxazol-3-yl)propan-2-yl)piperazine-2-carboxamide]
  EC50: 4.7 nM

## CN1CCNC[C@H]1C(=O)NC(C)(C)c1nnc2c(Cl)cccn12 [SC-125, (S)-N-(2-(8-chloro-[1,2,4]triazolo[4,3-a]pyridin-3-yl)propan-2-yl)-1-methylpiperazine-2-carboxamide]
  EC50: 1110 nM

## Cc1cccc2c(C(C)(C)NC(=O)[C@@H]3CNCCN3C)nn(C)c12 [SC-126, (S)-N-(2-(1,7-dimethyl-1H-indazol-3-yl)propan-2-yl)-1-methylpiperazine-2-carboxamide]
  EC50: 2.6 nM

## Cc1cccn2c(C(C)(C)NC(=O)[C@@H]3CNCCN3CC(F)F)ncc12 [SC-127, (S)-1-(2,2-difluoroethyl)-N-(2-(8-methylimidazo[1,5-al]pyridin-3-yl)propan-2-yl)piperazine-2-carboxamide]
  EC50: 1.1 nM

## COc1cccn2c(C(C)(C)NC(=O)[C@@H]3CNCCN3C)ncc12 [SC-128, (S)-N-(2-(8-methoxyimidazo[1,5-a]pyridin-3-yl)propan-2-yl)-1-methylpiperazine-2-carboxamide]
  EC50: 3.8 nM

## CN1CCNC[C@H]1C(=O)NC(C)(C)c1n[nH]c2c(F)cccc12 [SC-129, (S)-N-(2-(7-fluoro-1H-indazol-3-yl)propan-2-yl)-1-methylpiperazine-2-carboxamide]
  EC50: 2.8 nM
